# Experimental data: a flash point compilation (Sun et al. 2020)
# “And” between values parts separate entries of the source, which are not always exact repeats. Equal entries are not always repeated.
row,Structure (SMILES),flash point
1,"C=C(Cl)Cl [1,1-dichloroethylene]",-25 °C
2,N#CCc1ccccc1 [benzyl cyanide],101 °C
3,CCS [ethanethiol],-48 °C
4,CCCC(C)CC (stereo not drawn) [3-methylhexane],-3 °C
5,CC(C)(C)c1ccco1 [2-t-butylfuran],7 °C
6,CN=C=S [methyl isothiocyanate],32 °C
7,CCC(C)OC(C)=O (stereo not drawn) [sec-butyl acetate],16 °C
8,NC1CCCCC1 [cyclohexylamine],28 °C
9,C=CCCCCCC [1-octene],21 °C
10,CC(=O)OC(C)=O [acetic anhydride],49 °C
11,C=C(C)c1ccccc1 [alpha-methylstyrene],45 °C
12,C=CCCCCO [5-hexen-1-ol],47 °C
13,CCCCCCCC(C)=O [2-nonanone],69 °C
14,CC1CCCC(O)C1 (stereo not drawn) [3-methylcyclohexanol],62 °C
15,OCc1ccco1 [furfuryl alcohol],65 °C
16,Cc1cccnc1 [3-picoline],40 °C
17,CC(=O)CC(=O)OC(C)(C)C [t-butyl acetoacetate],60 °C
18,Cc1ccsc1 [3-methylthiophene],11 °C
19,c1cncnc1 [pyrimidine],31 °C
20,CCNC(C)C [N-ethylisopropylamine],16 °C
21,"NCCCN [1,3-propanediamine]",48 °C
22,O=Cc1ccccc1 [benzaldehyde],62 °C
23,CN [methylamine],-62 °C
24,CCCC=O [butyraldehyde],-6 °C
25,CN1CCCC1 [1-methylpyrrolidine],-18 °C
26,CCCCCCCC#N [octanenitrile],73 °C
27,Oc1ccc(Cl)cc1 [4-chlorophenol],115 °C

row,Structure (SMILES),flash point
1,"C[C@H]1CC[C@@H](C)CC1 [cis-1,4-dimethylcyclohexane]",6 °C
2,C=CCC#N [3-butenenitrile],21 °C
3,C=CC1CC=CCC1 (stereo not drawn) [4-vinyl-1-cyclohexene],16 °C
4,"COC(CBr)OC [2-bromo-1,1-dimethoxyethane]",53 °C
5,C1CCNCC1.Cl [piperidine hydrochloride],65 °C
6,C=CCOC(C)=O [allyl acetate],6 °C
7,C1CCCNCC1 [hexamethyleneimine],18 °C
8,CCCCOCCOCCOCCCC [diethylene glycol dibutyl ether],117 °C
9,COC [dimethylether],-83 °C
10,CC=C1CC2C=CC1C2 (stereo not drawn) [5-ethylidene-2-norbornene],38 °C
11,Cc1cccs1 [2-methylthiophene],7 °C
12,CCCCCCCCCC(C)=O [2-undecanone],89 °C
13,CCCCCCCCCCCCCCCCCCCC [eicosane],169 °C
14,Clc1ccc(Cl)cc1 [p-dichlorobenzene],66 °C
15,CCNCC [diethylamine],-26 °C and -23 °C
16,"ClCC(Cl)(Cl)Cl [1,1,1,2-tetrachloroethane]",47 °C
17,"COC1C=CC(OC)O1 (stereo not drawn) [2,5-dimethoxy-2,5-dihydrofuran]",51 °C
18,"CC(C)(C)CC(=O)O [3,3-dimethylbutanoic acid]",88 °C
19,CCSSCC [diethyl disulfide],40 °C
20,CCCCN(CCCC)CCCC [tributylamine],72 °C
21,C1CC1 [cyclopropane],-95 °C
22,Cc1cc(C)cc(C)c1 [mesitylene],50 °C
23,O=C1OC(=O)c2ccccc21 [phthalic anhydride],152 °C
24,CCC(=O)CC(C)CC (stereo not drawn) [5-methyl-3-heptanone],43 °C
25,"CCC(O)CO (stereo not drawn) [1,2-butanediol]",93 °C
26,CCCC(=O)OCC [ethyl butyrate],19 °C
